Data: patent US20030228263A1, “Propagermanium for treating myeloma bone disease and other bone disorders” (SurroMed, Inc., priority 2002, published 2003)

What was measured:
macrophages = details: mouse, in vivo; cited from earlier work
[1] = system: mouse bone marrow cells stimulated with MIP-1α; test: Formation of mouse osteoclasts (TRAP staining) in bone marrow cultures; assay type: cell-based; details: 1 μg/ml propagermanium, two different concentrations of MIP-1α, with 10^−11 M vitamin D, FIG. 2
Description: Bone marrow cells (10^6 cells/culture) from C57B1 mice were isolated and cultured for osteoclast-like multinucleated cell formation in the presence or absence of 1, 10, or 100 ng/ml MIP-1α, 10^−11 M 1,25-(OH)2D3 (vitamin D), and varying concentrations of anti-human MIP-1α antibody (20 or 100 ng/ml), anti-CCR1 receptor antibody (20 or 100 ng/ml), anti-CCR5 receptor antibody (20 or 100 ng/ml), and 1 μg/ml propagermanium. Twelve different culture compositions were each prepared in four wells of a 48-well plate. After approximately six or seven days, the cultures were stained for the enzyme tartrate-resistant acid phosphatase (TRAP), an enzyme secreted into the circulation by osteoclasts during bone resorption, using an acid phosphatase staining kit (Sigma). TRAP-positive multinucleated cells containing three or more nuclei (assumed to be osteoclasts) were counted with an inverted microscope. The readout can be either the total amount of TRAP (TRAP activity) or the number of osteoclasts.

monocytes = details: cited from earlier work
[2] = system: human bone marrow cells stimulated with MIP-1α; test: Formation of human osteoclasts (23c6-positive multinucleated cells) in long-term marrow cultures; assay type: cell-based; details: for increase in the number of osteoclasts formed over untreated marrow: 200 pg/ml MIP-1α or 10^−8 M 1,25-(OH)2D3 alone, 23c6-positive cells, about three weeks, FIG. 3
Description: Human long-term marrow cultures were performed as described in D. E. Hughes et al., “Estrogen promotes apoptosis of murine osteoclasts mediated by TGF-β,” Nature Medicine 2: 1132-1136, 1996, which is incorporated herein by reference. Briefly, human bone marrow nonadherent mononuclear cells from normal volunteers were cultured at 10^6 cells/ml in α-minimum essential medium and 20% horse serum with or without 10^−8 M 1,25-(OH)2D3 (vitamin D), 200 pg/ml MIP-1α, 20 ng/ml anti-human MIP-1α antibody, and varying concentrations of propagermanium. Five wells of each of ten different culture conditions were prepared in a 96-well plate. Each well contained 10^5 cells and the desired combination of reagents. Half of the culture medium was changed weekly. After approximately three weeks, the cultures were harvested and stained with the 23c6 monoclonal antibody, which identifies the osteoclast vitronectin receptor, and the 23c6-positive multinucleated cells counted. The 23c6 assay is more specific than the TRAP assay (used in Example 1 for mouse osteoclasts) for human osteoclasts.
Results are shown in FIG. 3, a plot of fold increase in osteoclasts over the number of osteoclasts formed in untreated marrow for each set of wells. Well conditions are indicated below the bars. Results are reported as the mean±S.E. for five replicate samples and were compared by Student's t test.

3-oxygermylpropionic acid polymer [Propagermanium]
recruitment of macrophages into the liver (macrophages): suppress
reduction of the number of osteoclasts formed [1]: greater than a factor of four
chemotactic response of monocytes to the CC chemokine MCP-1 (monocytes): inhibit
direct interaction with the chemokine receptor CCR2 (monocytes): did not appear to interact directly
number of osteoclasts formed in response to MIP-1α stimulation ([2]; 200 pg/ml MIP-1α, varying concentrations of propagermanium): dose-dependent reduction
effect on osteoclast formation in response to vitamin D stimulation ([2]; 10^−8 M 1,25-(OH)2D3, varying concentrations of propagermanium): no effect
inhibition of the effect of MIP-1α on osteoclast formation ([2]; highest dose of propagermanium, compared with 20 ng/ml anti-human MIP-1α antibody): comparable to that of the anti-human MIP-1α antibody

C=C1/C(=C\C=C2/CCC[C@]3(C)[C@@H]([C@H](C)CCCC(C)(C)O)CC[C@@H]23)C[C@@H](O)C[C@@H]1O [vitamin D, 1,25-(OH)2D3]
increase in the number of osteoclasts formed over untreated marrow [2]: greater than two-fold increase

B1: MIP-1α: CC chemokine macrophage inflammatory protein-1α, used as osteoclast stimulus (protein, UniProt P10147 24-92, looked up)
C-C motif chemokine 3: SLAADTPTACCFSYTSRQIPQNFIADYFETSSQCSKPGVIFLTKRSRQVCADPSEEWVQKYVSDLELSA
increase in the number of osteoclasts formed over untreated marrow [2]: greater than two-fold increase
